Measurements as given in US11230543B2, “Biaryl monobactam compounds and methods of use thereof for the treatment of bacterial infections” (priority 2015, dated 2022).
Counter-ions that a name gives are not always drawn.

What was measured:
[1] = test system: Klebsiella pneumoniae expressing KPC-1 (CL6569); experiment: Antibiotic activity: growth inhibitory concentration (OD600), Klebsiella pneumoniae CL6569; format: cell-based; conditions: lowest concentration inhibiting 95% of bacterial growth; in the presence of β lactamase inhibitor Relebactam 4 μg/mL; 35±2° C. for 22 hours; tested range 100 μM to 0.098 μM
Method: (§1) Antibiotic Activity: Determination of Growth Inhibitory Concentration
(§2) The concentrations of compounds required to inhibit the growth of various strains of bacteria were determined in an assay that assessed bacterial growth by measuring optical density at 600 nm (OD600). The bacterial strains tested included the clinical strains Escherichia coli expressing NDM-1 (CLB30016), Klebsiella pneumoniae expressing KPC-1 (CL6569), Acinetobacter baumannii expressing TEM-1, AmpC, and Oxa-24/40 (CL6188) and Pseudomonas aeruginosa expressing AmpC (CL5701). All compounds were tested in the presence of a β lactamase inhibitor (BLi, Relebactam) in 384-well microplates. The clinical strains were stored as frozen single use stocks, thawed and diluted into 1.1× cation-adjusted Mueller-Hinton II broth to achieve approximately 2×10^5 CFU/mL. Test compounds were dissolved in DMSO and diluted 1:50 in the assay, resulting in a final concentration range of 100 μM to 0.098 μM. On the day of the assay, 1 μL of test compound was added to the plate followed by 4 μL of 50 μg/mL BLi in MOPS buffer and 45 μL of diluted bacteria. Plates were centrifuged at 1000 rpm for 30 seconds, shaken at approximately 800 rpm for 1 minute, and incubated at 35±2° C. for 22 hours. The concentration of BLi used in the assay was 4 μg/mL. At the end of the incubation, absorbance at 600 nm was determined using a spectrophotometer. Inhibition was quantitated by identifying the lowest concentration of test compound that was required to inhibit 95% of the growth of the bacteria. The results for Examples 1-126 are reported in Table I, expressed as the concentration of compound that inhibited 95% of bacterial growth (Minimum Inhibitory Threshold Concentration; MITC95).

[2] = test system: Pseudomonas aeruginosa expressing AmpC (CL5701); experiment: Antibiotic activity: growth inhibitory concentration (OD600), Pseudomonas aeruginosa CL5701; format: cell-based; conditions: lowest concentration inhibiting 95% of bacterial growth; in the presence of β lactamase inhibitor Relebactam 4 μg/mL; 35±2° C. for 22 hours; tested range 100 μM to 0.098 μM
Method: as §1, §2

## C[C@@H]1[C@H](NC(=O)/C(=N\O[C@@](C)(COc2ccc(-c3cn(CCCN)[n+](C)c3)cc2)C(=O)O)c2csc(N)n2)C(=O)N1S(=O)(=O)O.O=C([O-])C(F)(F)F [Example 25, 1-(3-aminopropyl)-4-(4-((S)-2-((((Z)-1-(2-aminothiazol-4-yl)-2-(((2R,3S)-2-methyl-4-oxo-1-sulfoazetidin-3-yl)amino)-2-oxoethylidene)amino)oxy)-2-carboxypropoxy)phenyl)-2-methyl-1H-pyrazol-2-ium 2,2,2-trifluoroacetate]
[1]
  KP_CL6569 MITC95: 0.3906 µM
[2]
  PA_CL5701 MITC95: 3.125 µM

## C[n+]1cc(OC[C@H](O/N=C(\C(=O)N[C@@H]2C(=O)N(OS(=O)(=O)O)C2(C)C)c2csc(N)n2)C(=O)O)ccc1-c1cnn(CCCN)c1.O=C([O-])C(F)(F)F [Example 26, 2-(1-(3-aminopropyl)-1H-pyrazol-4-yl)-5-((S)-2-((((Z)-1-(2-aminothiazol-4-yl)-2-(((S)-2,2-dimethyl-4-oxo-1-(sulfooxy)azetidin-3-yl)amino)-2-oxo-ethylidene)amino)oxy)-2-carboxyethoxy)-1-methylpyridin-1-ium 2,2,2-trifluoroacetate]
[1]
  KP_CL6569 MITC95: 1.563 µM
[2]
  PA_CL5701 MITC95: 50 µM

## CC1(C)[C@H](NC(=O)/C(=N\O[C@@H](COc2ccc(-c3cn(CCCN)nc3N)cc2)C(=O)O)c2csc(N)n2)C(=O)N1OS(=O)(=O)O [Example 27, (S)-3-(4-(3-amino-1-(3-aminopropyl)-1H-pyrazol-4-yl)phenoxy)-2-((((Z)-1-(2-aminothiazol-4-yl)-2-(((S)-2,2-dimethyl-4-oxo-1-(sulfooxy)azetidin-3-yl)amino)-2-oxoethylidene)amino)oxy)propanoic acid]
[1]
  KP_CL6569 MITC95: 0.7813 µM
[2]
  PA_CL5701 MITC95: 6.25 µM

## C[n+]1c(N)c(-c2ccc(OC[C@H](O/N=C(\C(=O)N[C@@H]3C(=O)N(OS(=O)(=O)[O-])C3(C)C)c3csc(N)n3)C(=O)O)cc2)cn1CCCN [Example 28, (S)-3-((Z)-2-(((S)-2-(4-(3-Amino-1-(3-aminopropyl)-2-methyl-1H-pyrazol-2-ium-4-yl)phenoxy)-1-carboxyethoxy)imino)-2-(2-aminothiazol-4-yl)acetamido)-2,2-dimethyl-4-oxoazetidin-1-yl sulfate]
[1]
  KP_CL6569 MITC95: 0.2 µM
[2]
  PA_CL5701 MITC95: 3.13 µM

## C[C@H]1[C@H](NC(=O)/C(=N\O[C@@H](COc2ccc(-c3cn(CCCN)[n+](C)c3)cc2)c2nn[nH]n2)c2csc(N)n2)C(=O)N1S(=O)(=O)O.O=C([O-])C(F)(F)F [Example 30, 1-(3-aminopropyl)-4-(4-((R)-2-((((Z)-1-(2-aminothiazol-4-yl)-2-(((2S,3S)-2-methyl-4-oxo-1-sulfoazetidin-3-yl)amino)-2-oxoethylidene)amino)oxy)-2-(2H-tetrazol-5-yl)ethoxy)phenyl)-2-methyl-1H-pyrazol-2-ium 2,2,2-trifluoroacetate]
[1]
  KP_CL6569 MITC95: 3.125 µM
[2]
  PA_CL5701 MITC95: 6.25 µM

## CC1(C)[C@H](NC(=O)/C(=N\O[C@@H](COc2ccc(-c3cn(CCCN)c(N)n3)cc2)C(=O)O)c2csc(N)n2)C(=O)N1OS(=O)(=O)O.O=C(O)C(F)(F)F [Example 31, 3-(2-amino-4-(4-((S)-2-((((Z)-1-(2-aminothiazol-4-yl)-2-(((S)-2,2-dimethyl-4-oxo-1-(sulfooxy)azetidin-3-yl)amino)-2-oxoethylidene)amino)oxy)-2-carboxyethoxy)phenyl)-1H-imidazol-1-yl)propan-1-aminium 2,2,2-trifluoroacetate]
[1]
  KP_CL6569 MITC95: 0.3906 µM
[2]
  PA_CL5701 MITC95: 3.125 µM

## Cn1c(-c2ccc(OC[C@H](O/N=C(\C(=O)N[C@@H]3C(=O)N(OS(=O)(=O)O)C3(C)C)c3csc(N)n3)C(=O)O)cc2)cn(CCCN)c1=N.O=C(O)C(F)(F)F [Example 32, 3-(4-(4-((S)-2-((((Z)-1-(2-aminothiazol-4-yl)-2-(((S)-2,2-dimethyl-4-oxo-1-(sulfooxy)-azetidin-3-yl)amino)-2-oxoethylidene)amino)oxy)-2-carboxyethoxy)phenyl)-2-imino-3-methyl-2,3-dihydro-1H-imidazol-1-yl)propan-1-aminium 2,2,2-trifluoroacetate]
[1]
  KP_CL6569 MITC95: 0.1953 µM
[2]
  PA_CL5701 MITC95: 3.125 µM
